Source: US9113629B2, “4-amino-6-(4-substituted-phenyl)-picolinates and 6-amino-2-(4-substituted-phenyl)-pyrimidine-4-carboxylates and their use as herbicides” (DOW AGROSCIENCES LLC, priority 2013, dated 2015)

Tested on: not given
Experiment: not given
Details: not given

melting point | Structure (SMILES)
174 to 176 °C | COC(=O)c1nc(-c2cc(F)c(Br)cc2F)cc(N)c1Cl [Compound 127, methyl 4-amino-6-(4-bromo-2,5-difluorophenyl)-3-chloropicolinate]

Tested on: Key Broadleaf Weed and Crop Species
Experiment: Post-emergent Test II herbicidal activity (Table 5)
Assay type: in vivo
Details: post-emergence, 336 h; ABUTH: velvetleaf (Abutilon theophrasti); 70 g ai/ha; post-emergent; 14 days after application; read-out: Visual Growth Reduction (%) 14 Days After Application ABUTH
How it was run: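 Test species were raised 7–21 d under greenhouse conditions until reaching the first or second true leaf, sprayed with formulated compound at 187 L/ha, and kept subirrigated to avoid wash-off. Fourteen days later, damage was rated visually on a 0–100% scale against untreated plants.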

Structure (SMILES) | pest or weed control at 70 g/ha
COC(=O)c1nc(-c2cc(F)c(Br)cc2F)cc(N)c1Cl [Compound 127, methyl 4-amino-6-(4-bromo-2,5-difluorophenyl)-3-chloropicolinate] | 95 to 100%

Same assay, conditions: post-emergence, 336 h; ABUTH: velvetleaf (Abutilon theophrasti); 140 g ai/ha; post-emergent; 14 days after application; read-out: Visual Growth Reduction (%) 14 Days After Application ABUTH

Structure (SMILES) | pest or weed control at 140 g/ha
COC(=O)c1nc(-c2cc(F)c(Br)cc2F)cc(N)c1Cl [Compound 127, methyl 4-amino-6-(4-bromo-2,5-difluorophenyl)-3-chloropicolinate] | 95 to 100%

Same assay, conditions: post-emergence, 336 h; AMARE: redroot pigweed (Amaranthus retroflexus); 70 g ai/ha; post-emergent; 14 days after application; read-out: Visual Growth Reduction (%) 14 Days After Application AMARE

Structure (SMILES) | pest or weed control at 70 g/ha
COC(=O)c1nc(-c2cc(F)c(Br)cc2F)cc(N)c1Cl [Compound 127, methyl 4-amino-6-(4-bromo-2,5-difluorophenyl)-3-chloropicolinate] | 95 to 100%

Same assay, conditions: post-emergence, 336 h; AMARE: redroot pigweed (Amaranthus retroflexus); 140 g ai/ha; post-emergent; 14 days after application; read-out: Visual Growth Reduction (%) 14 Days After Application AMARE

Structure (SMILES) | pest or weed control at 140 g/ha
COC(=O)c1nc(-c2cc(F)c(Br)cc2F)cc(N)c1Cl [Compound 127, methyl 4-amino-6-(4-bromo-2,5-difluorophenyl)-3-chloropicolinate] | 95 to 100%

Same assay, conditions: post-emergence, 336 h; BRSNN: oilseed-rape, canola (Brassica napus); 70 g ai/ha; post-emergent; 14 days after application; read-out: Visual Growth Reduction (%) 14 Days After Application BRSNN

Structure (SMILES) | pest or weed control at 70 g/ha
COC(=O)c1nc(-c2cc(F)c(Br)cc2F)cc(N)c1Cl [Compound 127, methyl 4-amino-6-(4-bromo-2,5-difluorophenyl)-3-chloropicolinate] | 85 to 94%

Same assay, conditions: post-emergence, 336 h; BRSNN: oilseed-rape, canola (Brassica napus); 140 g ai/ha; post-emergent; 14 days after application; read-out: Visual Growth Reduction (%) 14 Days After Application BRSNN

Structure (SMILES) | pest or weed control at 140 g/ha
COC(=O)c1nc(-c2cc(F)c(Br)cc2F)cc(N)c1Cl [Compound 127, methyl 4-amino-6-(4-bromo-2,5-difluorophenyl)-3-chloropicolinate] | 95 to 100%

Same assay, conditions: post-emergence, 336 h; CHEAL: lambsquarters (Chenopodium album); 70 g ai/ha; post-emergent; 14 days after application; read-out: Visual Growth Reduction (%) 14 Days After Application CHEAL

Structure (SMILES) | pest or weed control at 70 g/ha
COC(=O)c1nc(-c2cc(F)c(Br)cc2F)cc(N)c1Cl [Compound 127, methyl 4-amino-6-(4-bromo-2,5-difluorophenyl)-3-chloropicolinate] | 95 to 100%

Same assay, conditions: post-emergence, 336 h; CHEAL: lambsquarters (Chenopodium album); 140 g ai/ha; post-emergent; 14 days after application; read-out: Visual Growth Reduction (%) 14 Days After Application CHEAL

Structure (SMILES) | pest or weed control at 140 g/ha
COC(=O)c1nc(-c2cc(F)c(Br)cc2F)cc(N)c1Cl [Compound 127, methyl 4-amino-6-(4-bromo-2,5-difluorophenyl)-3-chloropicolinate] | 95 to 100%

Same assay, conditions: post-emergence, 336 h; EPHHL: wild poinsettia (Euphorbia heterophylla); 70 g ai/ha; post-emergent; 14 days after application; read-out: Visual Growth Reduction (%) 14 Days After Application EPHHL

Structure (SMILES) | pest or weed control at 70 g/ha
COC(=O)c1nc(-c2cc(F)c(Br)cc2F)cc(N)c1Cl [Compound 127, methyl 4-amino-6-(4-bromo-2,5-difluorophenyl)-3-chloropicolinate] | 95 to 100%

Same assay, conditions: post-emergence, 336 h; EPHHL: wild poinsettia (Euphorbia heterophylla); 140 g ai/ha; post-emergent; 14 days after application; read-out: Visual Growth Reduction (%) 14 Days After Application EPHHL

Structure (SMILES) | pest or weed control at 140 g/ha
COC(=O)c1nc(-c2cc(F)c(Br)cc2F)cc(N)c1Cl [Compound 127, methyl 4-amino-6-(4-bromo-2,5-difluorophenyl)-3-chloropicolinate] | 95 to 100%

Same assay, conditions: post-emergence, 336 h; HELAN: sunflower (Helianthus annuus); 70 g ai/ha; post-emergent; 14 days after application; read-out: Visual Growth Reduction (%) 14 Days After Application HELAN

Structure (SMILES) | pest or weed control at 70 g/ha
COC(=O)c1nc(-c2cc(F)c(Br)cc2F)cc(N)c1Cl [Compound 127, methyl 4-amino-6-(4-bromo-2,5-difluorophenyl)-3-chloropicolinate] | 85 to 94%

Same assay, conditions: post-emergence, 336 h; HELAN: sunflower (Helianthus annuus); 140 g ai/ha; post-emergent; 14 days after application; read-out: Visual Growth Reduction (%) 14 Days After Application HELAN

Structure (SMILES) | pest or weed control at 140 g/ha
COC(=O)c1nc(-c2cc(F)c(Br)cc2F)cc(N)c1Cl [Compound 127, methyl 4-amino-6-(4-bromo-2,5-difluorophenyl)-3-chloropicolinate] | 95 to 100%

Same assay, conditions: post-emergence, 336 h; VIOTR: wild pansy (Viola tricolor); 70 g ai/ha; post-emergent; 14 days after application; read-out: Visual Growth Reduction (%) 14 Days After Application VIOTR

Structure (SMILES) | pest or weed control at 70 g/ha
COC(=O)c1nc(-c2cc(F)c(Br)cc2F)cc(N)c1Cl [Compound 127, methyl 4-amino-6-(4-bromo-2,5-difluorophenyl)-3-chloropicolinate] | 95 to 100%

Same assay, conditions: post-emergence, 336 h; VIOTR: wild pansy (Viola tricolor); 140 g ai/ha; post-emergent; 14 days after application; read-out: Visual Growth Reduction (%) 14 Days After Application VIOTR

Structure (SMILES) | pest or weed control at 140 g/ha
COC(=O)c1nc(-c2cc(F)c(Br)cc2F)cc(N)c1Cl [Compound 127, methyl 4-amino-6-(4-bromo-2,5-difluorophenyl)-3-chloropicolinate] | 95 to 100%
